US11352353B2, “Heterocyclic compound serving as FGFR4 inhibitor” (Hangzhou Innogate Pharma Co., Ltd., priority 2016, dated 2022)

Assays:
[1] = target: FGFR1 (Homo sapiens, UniProt P11362); assay: FGFR1 kinase activity inhibition (Caliper mobility shift assay); assay type: biochemical; settings: FAM-labeled peptide and ATP, 28° C. 30-60 minutes, read-out: FGFR kinase inhibition (IC50, nM) FGFR1
Protocol: (§1) 1. FGFR1 and FGFR4 Kinase Activity Inhibition Experiments
(§2) The FGFR1, FGFR2, FGFR3 and FGFR4 protein kinase activities were determined using the Caliper mobility shift assay. The compound was dissolved in DMSO and diluted with kinase buffer, and 5 µL of a 5-fold final concentration of the compound (10% DMSO) was added to a 384-well plate. After adding 10 µL of 2.5-fold enzyme (FGFR1 and FGFR4, respectively) solution, incubate for 10 minutes at room temperature, and then add 10 µL of a (FAM-labeled peptide and ATP) solution. Incubate at 28° C. for 30-60 minutes and stop the reaction by adding 25 µL stop solution. Conversion rate data was read on a Caliper EZ Reader II (Caliper Life Sciences). The conversion rate was converted into inhibition rate data (% inhibition rate=(max−sample conversion rate)/(max−min)*100). Wherein max is the conversion of the DMSO control and min is the conversion of the enzyme-free control. Plot the curve with the compound concentration and inhibition rate on the horizontal and vertical coordinates, and fit the curve and calculate the IC50 using XLFit excel add-in version 4.3.1 software.

[2] = tested on: Huh7 tumor cells; assay: Inhibition of Huh-7 tumor cell proliferation (CellTiter Glo); assay type: cell-based; settings: Homo sapiens, 72 or 168 hours
Protocol: 2. Compound Inhibition Test on Huh-7 Tumor Cell Proliferation
The Huh7 cell suspension was adjusted to 5×10e4/mL or 2×10e4/mL with DMEM+2 Mm Glutamine+10% FBS medium. A 100 μL cell suspension was added to each well in a 96-well cell culture plate at a final cell concentration of 5000 cells/well (72 hours) or 2000 cells/well (168 hours). The test compound was dissolved in DMSO as a 10 mM stock solution. Compounds at a final concentration of 200× were prepared using stock solutions and DMSO, and 3× serial dilutions were prepared and then diluted 20-fold with each medium. Finally, 10 μL of the corresponding 10-fold solution was added to each well of each cell, and each drug concentration was single-well. The final concentrations of each compound were 3000 nM, 1000 nM, 333.3 nM, 111.1 nM, 37.04 nM, 12.35 nM, 4.12 nM, 1.37 nM, and the final concentration of DMSO per well was 0.5%. Incubate for 72 or 168 hours in a 37° C., 5% CO2 incubator. After 72 or 168 hours of drug treatment, according to the CTG instructions, add 100 µL CellTiter Glo detection reagent per well, pre-melt and equilibrate to room temperature CTG solution, mix with a microplate shaker for 2 minutes, and leave at room temperature for 10 minutes. The chemiluminescence signal value was then measured using an EnSpire plate reader. Cell survival rate was calculated using formula: (Vsample−Vblank)/(Vvehicle control−Vblank)×100%. Vsample is the reading of the drug treatment group, Vvehicle control is the average value of the solvent control group, and Vblank is the average value of the blank control well. The S-type dose-survival curve was plotted and the IC50 values were calculated using the GraphPad Prism 5.0 software using a non-linear regression model.

[3] = target: FGFR4 (Homo sapiens, UniProt P22455); assay: FGFR4 kinase activity inhibition (Caliper mobility shift assay); assay type: biochemical; settings: FAM-labeled peptide and ATP, 28° C. 30-60 minutes, read-out: FGFR kinase inhibition (IC50, nM) FGFR4
Protocol: as §1, §2

Chain of FGFR4 (P22455 22-802): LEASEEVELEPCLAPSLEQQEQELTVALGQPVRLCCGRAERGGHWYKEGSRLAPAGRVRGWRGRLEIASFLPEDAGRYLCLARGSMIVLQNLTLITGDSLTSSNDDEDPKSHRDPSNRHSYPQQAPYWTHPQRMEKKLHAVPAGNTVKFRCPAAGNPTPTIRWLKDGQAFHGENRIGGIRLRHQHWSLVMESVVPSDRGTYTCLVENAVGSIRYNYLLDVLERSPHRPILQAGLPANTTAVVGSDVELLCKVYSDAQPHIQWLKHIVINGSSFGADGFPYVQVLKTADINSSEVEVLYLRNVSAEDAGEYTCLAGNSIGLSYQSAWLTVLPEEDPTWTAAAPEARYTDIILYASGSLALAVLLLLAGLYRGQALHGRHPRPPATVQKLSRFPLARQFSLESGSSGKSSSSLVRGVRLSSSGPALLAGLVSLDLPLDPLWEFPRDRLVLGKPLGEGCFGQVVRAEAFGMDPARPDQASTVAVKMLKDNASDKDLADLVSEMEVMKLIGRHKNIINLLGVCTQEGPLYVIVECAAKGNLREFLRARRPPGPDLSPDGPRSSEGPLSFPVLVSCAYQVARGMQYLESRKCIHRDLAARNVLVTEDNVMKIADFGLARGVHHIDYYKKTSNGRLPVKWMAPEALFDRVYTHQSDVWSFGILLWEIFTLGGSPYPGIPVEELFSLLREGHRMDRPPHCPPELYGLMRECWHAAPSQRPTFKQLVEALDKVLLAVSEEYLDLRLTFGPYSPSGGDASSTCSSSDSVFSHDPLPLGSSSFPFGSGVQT
Chain of FGFR1 (P11362 22-822): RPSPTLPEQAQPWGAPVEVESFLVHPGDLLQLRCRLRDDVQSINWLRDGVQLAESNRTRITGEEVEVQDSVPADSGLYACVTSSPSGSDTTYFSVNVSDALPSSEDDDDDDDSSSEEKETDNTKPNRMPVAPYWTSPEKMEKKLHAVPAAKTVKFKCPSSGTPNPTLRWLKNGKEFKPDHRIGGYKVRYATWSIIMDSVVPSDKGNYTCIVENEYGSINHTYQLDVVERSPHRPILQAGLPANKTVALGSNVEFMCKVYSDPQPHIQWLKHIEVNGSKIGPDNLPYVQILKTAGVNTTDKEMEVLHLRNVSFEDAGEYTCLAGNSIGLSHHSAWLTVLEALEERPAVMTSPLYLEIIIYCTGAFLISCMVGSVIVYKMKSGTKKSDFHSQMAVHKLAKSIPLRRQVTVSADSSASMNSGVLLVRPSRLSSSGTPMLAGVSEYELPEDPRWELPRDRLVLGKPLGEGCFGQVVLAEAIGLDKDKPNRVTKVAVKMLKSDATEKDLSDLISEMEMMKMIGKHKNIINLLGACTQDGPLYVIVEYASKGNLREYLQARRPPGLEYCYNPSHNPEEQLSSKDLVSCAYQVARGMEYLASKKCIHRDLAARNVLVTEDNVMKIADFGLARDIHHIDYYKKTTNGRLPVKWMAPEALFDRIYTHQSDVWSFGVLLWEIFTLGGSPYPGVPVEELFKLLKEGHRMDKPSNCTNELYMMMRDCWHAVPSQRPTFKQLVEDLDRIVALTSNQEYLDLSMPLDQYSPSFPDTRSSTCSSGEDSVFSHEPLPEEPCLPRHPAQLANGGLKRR

IC50 [1] [nM]	IC50 [2] [nM]	IC50 [3] [nM]	SMILES
–	–	< 5	COCCNc1cc(NC(=O)N2CCCc3cc(CN4CCCN(C)CC4=O)c(C=O)nc32)ncc1C#N [Compound 9]
–	–	< 5	COC1CC(Nc2cc(NC(=O)N3CCCc4cc(CN5CCN(C)CC5=O)c(C=O)nc43)ncc2C#N)C1 (stereo not drawn) [Compound 8]
–	–	< 5	COCCNc1cc(NC(=O)N2CCCc3cc(CN4CCN(C5CN(C)C5)CC4=O)c(C=O)nc32)ncc1C#N [Compound 11]
–	< 500	–	COCC1(Oc2cc(NC(=O)N3CCCc4cc(CN5CCN(C)CC5=O)c(C=O)nc43)ncc2C#N)CC1 [Compound 7]
–	–	< 5	CN1CCN(Cc2cc3c(nc2C=O)N(C(=O)Nc2cc(NC4CC4)c(C#N)cn2)CCC3)C(=O)C1 [Compound 12]
–	–	< 5	COCCNc1cc(NC(=O)N2CCCc3cc(CN4CCN5CCCC5C4=O)c(C=O)nc32)ncc1C#N (stereo not drawn) [Compound 10]

More lines, now with the values behind:

SMILES	IC50 [1] [nM]	IC50 [2] [nM]	IC50 [3] [nM]
COC1CCC(Oc2cc(NC(=O)N3CCCc4cc(CN5CCN(C)CC5=O)c(C=O)nc43)ncc2C#N)CC1 (stereo not drawn) [Compound 2]	> 10000	< 50	–
N#Cc1cnc(NC(=O)N2CCCc3cc(CN4CC5CCCN5CC4=O)c(C=O)nc32)cc1OC1CC1 (stereo not drawn) [Compound 6]	–	< 500	–
CN1CCN(Cc2cc3c(nc2C=O)N(C(=O)Nc2cc(OC4CC4)c(C#N)cn2)CCC3)C(=O)C1 [Compound 1]	> 10000	< 50	–
CN1CCCN(Cc2cc3c(nc2C=O)N(C(=O)Nc2cc(OC4CC4)c(C#N)cn2)CCC3)C(=O)C1 [Compound 5]	–	< 50	–
CO[C@H]1CC[C@@H](Nc2cc(NC(=O)N3CCCc4cc(CN5CCN(C)CC5=O)c(C=O)nc43)ncc2C#N)CC1 [Compound 3]	–	< 50	–
N#Cc1cnc(NC(=O)N2CCCc3cc(CN4CCN(C5CC5)CC4=O)c(C=O)nc32)cc1OC1CC1 [Compound 4]	–	< 500	< 20
